We go through 21 molecules from US20260200897A1, “4-((5-(3-(4-(PYRIDIN-2-YL)CYCLOPENTYL)-1H-PYRAZOL-3-YL)AMINO)-BENZENESULFONAMIDE DERIVATIVES AND SIMILAR COMPOUNDS AS CDK INHIBITORS FOR THE TREATMENT OF CANCER” (BeOne Medicines I GmbH, priority 2023, published 2026).

Experiment [1] deals with T1, CDK2/Cyclin E1 (Homo sapiens, UniProt P24941). The experiment can be described thus: CDK2/Cyclin E1 TR-FRET biochemical assay, 0.060 mM ATP. The conditions noted are these: 0.15 μM Rb (Ser780)-biotin substrate, 120 min reaction, Table 1. How it is done:
(§1) Compounds disclosed herein were tested for inhibition of CDK2/Cyclin E1 or CDK1/Cyclin B1 kinase in an assay based on the time-resolved fluorescence-resonance energy transfer (TR-FRET) methodology. The assay was carried out in 384-well low volume black plates in a reaction mixture containing CDK2/Cyclin E1 or CDK1/Cyclin B1, 0.060 mM ATP for CDK2/Cyclin E1 or 0.015 mM ATP for CDK1/Cyclin B1, 0.15 μM Rb (Ser780)-biotin substrate and 0-10 μM compound in buffer containing 50 mM HEPES pH7.0, 0.02% NaN3, 0.01% BSA, 0.1 mM Orthovanadate, 50 mM MgCl2, 1 mM DTT and 0.005% Tween-20. The kinase was incubated with compound for 60 minutes at room temperature and the reaction was initiated by the addition of ATP and Rb (Ser780)-biotin substrate. After reaction at room temperature for 120 minutes, an equal volume of stop/detection solution was added according to the manufacture's instruction (Cisbio Bioassays). The stop/detection solution contained Streptavidin-XL665 and Anti-pRb (Ser780) mAb-Eu Cryptate in Detection buffer (Cisbio Bioassays). Plates were incubated at room temperature for 60 minutes, and the TR-FRET signals (ex337 nm, em665 nm/620 nm) were recorded on a PHERAstar FSX plate reader (BMG Labtech). The inhibition percentage of CDK2/Cyclin E1 or CDK1/Cyclin B1 kinase activity in presence of increasing concentrations of compounds was calculated based on the ratio of fluorescence at 665 nm to that at 620 nm. The IC50 for each compound was derived from fitting the data to the four-parameter logistic equation by Dotmatics.
In general terms: In TR-FRET formats the signal depends on donor and acceptor labels being close together.

Experiment [2] has as its target T2, CDK1/Cyclin B1 (Homo sapiens, UniProt P06493). Nature of the experiment: CDK1/Cyclin B1 TR-FRET biochemical assay, 0.015 mM ATP. The conditions noted are these: 0.15 μM Rb (Ser780)-biotin substrate, 120 min reaction, Table 1. How it is done: as §1
The target of experiment [3] is T2, CDK1/Cyclin B1. The experiment can be described thus: CDK1/Cyclin B1 TR-FRET biochemical assay, 1 mM ATP. The note with it: 0.15 μM Rb (Ser780)-biotin substrate, 90 min reaction, Table 2.
The target in experiment [4] is T1, CDK2/Cyclin E1. Nature of the experiment: CDK2/Cyclin E1 TR-FRET biochemical assay, 1 mM ATP. The note with it: 0.15 μM Rb (Ser780)-biotin substrate, 90 min reaction, Table 2.

T2 sequence (P06493 whole entry): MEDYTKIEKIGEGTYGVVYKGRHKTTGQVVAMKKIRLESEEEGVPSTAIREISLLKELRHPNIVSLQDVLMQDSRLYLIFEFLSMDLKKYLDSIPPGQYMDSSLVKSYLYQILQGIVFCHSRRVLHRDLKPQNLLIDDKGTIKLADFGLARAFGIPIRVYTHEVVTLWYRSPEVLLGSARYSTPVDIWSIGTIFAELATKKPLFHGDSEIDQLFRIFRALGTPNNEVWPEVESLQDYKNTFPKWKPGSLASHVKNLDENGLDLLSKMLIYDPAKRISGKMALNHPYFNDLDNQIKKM
T2 sequence (P14635 whole entry partner): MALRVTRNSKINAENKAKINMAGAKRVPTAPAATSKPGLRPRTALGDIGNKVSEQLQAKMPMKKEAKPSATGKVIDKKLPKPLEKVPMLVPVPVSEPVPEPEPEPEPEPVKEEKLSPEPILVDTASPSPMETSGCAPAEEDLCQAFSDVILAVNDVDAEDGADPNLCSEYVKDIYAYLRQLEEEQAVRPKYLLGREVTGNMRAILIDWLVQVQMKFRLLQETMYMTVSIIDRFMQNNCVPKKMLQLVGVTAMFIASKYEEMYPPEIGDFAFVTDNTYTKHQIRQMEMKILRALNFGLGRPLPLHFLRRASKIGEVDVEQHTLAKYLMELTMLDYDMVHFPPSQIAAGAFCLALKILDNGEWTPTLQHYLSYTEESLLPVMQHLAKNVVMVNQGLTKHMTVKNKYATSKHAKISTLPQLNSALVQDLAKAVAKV

For the molecule `CC(C)(C)n1cnnc1O[C@@H]1CC[C@H](c2cc(Nc3ccc4c(c3F)CNS4(=O)=O)n[nH]2)C1` (relative stereo) [Example 59, (cis)-5-((5-(3-((4-(tert-butyl)-4H-1,2,4-triazol-3-yl)oxy)cyclopentyl)-1H-pyrazol-3-yl)amino)-4-fluoro-2,3-dihydrobenzo[d]isothiazole 1,1-dioxide], the IC50 against CDK2/Cyclin E1 [1] was determined as 7.6 nM; on CDK1/Cyclin B1 [2], 556 nM.

`CC1(C)NC(=O)N(C2CCC(c3cc(Nc4ccc5c(c4F)CNS5(=O)=O)n[nH]3)C2)C1=O` (single isomer, unassigned) [Example 84b, cis-3-(3-(3-((4-fluoro-1,1-dioxido-2,3-dihydrobenzo[d]isothiazol-5-yl)amino)-1H-pyrazol-5-yl)cyclopentyl)-5,5-dimethylimidazolidine-2,4-dione]: the IC50 against CDK2/Cyclin E1 [1] is 14 nM; on CDK1/Cyclin B1 [2], 142 nM.

As to `Cc1ccnnc1O[C@@H]1CC[C@H](c2cc(Nc3ccc4c(c3F)CNS4(=O)=O)n[nH]2)C1` (relative stereo) [Example 24, cis-4-fluoro-5-((5-(3-((4-methylpyridazin-3-yl)oxy)cyclopentyl)-1H-pyrazol-3-yl)amino)-2,3-dihydrobenzo[d]isothiazole 1,1-dioxide], the IC50 against CDK2/Cyclin E1 [1] turned out to be 5.7 nM; against CDK1/Cyclin B1 [2], 49 nM.

As for `CCc1ccnnc1O[C@@H]1CC[C@H](c2cc(Nc3ccc4c(c3F)CNS4(=O)=O)n[nH]2)C1` (relative stereo) [Example 25, cis-5-((5-(3-((4-ethylpyridazin-3-yl)oxy)cyclopentyl)-1H-pyrazol-3-yl)amino)-4-fluoro-2,3-dihydrobenzo[d]isothiazole 1,1-dioxide], the IC50 at CDK2/Cyclin E1 [1] was 1.4 nM; against CDK1/Cyclin B1 [2], 11 nM.

Take `CC(C)(C)c1ccnc(O[C@@H]2CC[C@H](c3cc(Nc4ccc5c(c4F)CNS5(=O)=O)n[nH]3)C2)c1` (relative stereo) [Example 47, cis-5-((5-(3-((4-(tert-butyl)pyridin-2-yl)oxy)cyclopentyl)-1H-pyrazol-3-yl)amino)-4-fluoro-2,3-dihydrobenzo[d]isothiazole 1,1-dioxide]: the IC50 was 3440 nM against CDK2/Cyclin E1 [1] and above 10000 nM against CDK1/Cyclin B1 [2].

As to `CC(C)(C)c1ncccc1O[C@@H]1CC[C@H](c2cc(Nc3ccc4c(c3F)CNS4(=O)=O)n[nH]2)C1` (relative stereo) [Example 45, cis-5-((5-(3-((2-(tert-butyl)pyridin-3-yl)oxy)cyclopentyl)-1H-pyrazol-3-yl)amino)-4-fluoro-2,3-dihydrobenzo[d]isothiazole 1,1-dioxide], the IC50 at CDK2/Cyclin E1 [1] is 764 nM; against CDK1/Cyclin B1 [2] it was 7120 nM.

For the molecule `CC(C)n1ccn([C@H]2CC[C@@H](c3cc(Nc4ccc5c(c4F)CNS5(=O)=O)n[nH]3)C2)c1=O` (relative stereo) [Example 83, cis-1-(3-(3-((4-fluoro-1,1-dioxido-2,3-dihydrobenzo[d]isothiazol-5-yl)amino)-1H-pyrazol-5-yl)cyclopentyl)-3-isopropyl-1,3-dihydro-2H-imidazol-2-one], the IC50 against CDK2/Cyclin E1 [1] is 710 nM; at CDK1/Cyclin B1 [2] it was above 10000 nM.

For `CC(C)n1cc(O[C@@H]2CC[C@H](c3cc(Nc4ccc5c(c4F)CNS5(=O)=O)n[nH]3)C2)cn1` (relative stereo) [Example 78, cis-4-fluoro-5-((5-(3-((1-isopropyl-1H-pyrazol-4-yl)oxy)cyclopentyl)-1H-pyrazol-3-yl)amino)-2,3-dihydrobenzo[d]isothiazole 1,1-dioxide], the IC50 against CDK2/Cyclin E1 [1] is 306 nM; on CDK1/Cyclin B1 [2], above 10000 nM.

With `CC(C)(C)c1cnc(C2CCC(c3cc(Nc4ccc(S(N)(=O)=O)cc4F)n[nH]3)C2)o1` (single isomer, unassigned) [Example 6a, 4-((5-(3-(5-(tert-butyl)oxazol-2-yl)cyclopentyl)-1H-pyrazol-3-yl)amino)-3-fluorobenzenesulfonamide], the IC50 against CDK1/Cyclin B1 [3] is 2000 nM; against CDK2/Cyclin E1 [4] it was 3 nM.

For `Cc1nc(C2CCC(c3cc(Nc4ccc5c(c4F)CS(=O)(=O)N5)n[nH]3)C2)oc1C(C)(C)C` (stereo not drawn) [Example 154, 5-((5-(3-(5-(tert-butyl)-4-methyloxazol-2-yl)cyclopentyl)-1H-pyrazol-3-yl)amino)-4-fluoro-1,3-dihydrobenzo[c]isothiazole 2,2-dioxide], the IC50 on CDK1/Cyclin B1 [3] came out at 540 nM; on CDK2/Cyclin E1 [4], 9.6 nM.

On to `CC(C)(C)c1cnc(C2CCC(c3cc(Nc4ccc5c(c4)CN=S5(C)=O)n[nH]3)C2)o1` (single isomer, unassigned) [Example 169a, 5-((5-(3-(5-(tert-butyl)oxazol-2-yl)cyclopentyl)-1H-pyrazol-3-yl)amino)-1-methyl-3H-1λ^4-benzo[d]isothiazole 1-oxide], for which the values for the IC50 against CDK1/Cyclin B1 [3] and at CDK2/Cyclin E1 [4] were 189 nM and 0.6 nM, respectively.

As to `CC(C)c1cnc(C2CCC(c3cc(Nc4ccc5c(c4)CS(=O)(=O)N5C)n[nH]3)C2)o1` (stereo not drawn) [Example 143, 5-((5-(3-(5-isopropyloxazol-2-yl)cyclopentyl)-1H-pyrazol-3-yl)amino)-1-methyl-1,3-dihydrobenzo[c]isothiazole 2,2-dioxide], the IC50 against CDK1/Cyclin B1 [3] turned out to be 1320 nM; on CDK2/Cyclin E1 [4], 14 nM.

With `NS(=O)(=O)c1ccc(Nc2cc(C3CCC(c4ncc(C5CC5)o4)C3)[nH]n2)c(F)c1` (stereo not drawn) [Example 9, 4-((5-(3-(5-cyclopropyloxazol-2-yl)cyclopentyl)-1H-pyrazol-3-yl)amino)-3-fluorobenzenesulfonamide], the figures for the IC50 against CDK1/Cyclin B1 [3] and on CDK2/Cyclin E1 [4] were above 10000 nM and 131 nM, respectively.

`CN1c2ccc(Nc3cc([C@@H]4CC[C@H](c5ncc(C(C)(C)C)o5)C4)[nH]n3)cc2CS1(=O)=O` [Example 142, 5-((5-((1R,3S)-3-(5-(tert-butyl)oxazol-2-yl)cyclopentyl)-1H-pyrazol-3-yl)amino)-1-methyl-1,3-dihydrobenzo[c]isothiazole 2,2-dioxide]: the figures for the IC50 at CDK1/Cyclin B1 [3] and against CDK2/Cyclin E1 [4] were 2530 nM and 12 nM, respectively.

As to `CC(C)(C)c1ccc(C2CCC(c3cc(Nc4ccc5c(c4F)CNS5(=O)=O)[nH]n3)C2)nc1` (stereo not drawn) [Example 119, 5-((3-(3-(5-(tert-butyl)pyridin-2-yl)cyclopentyl)-1H-pyrazol-5-yl)amino)-4-fluoro-2,3-dihydrobenzo[d]isothiazole 1,1-dioxide], the IC50 against CDK1/Cyclin B1 [3] and on CDK2/Cyclin E1 [4] was above 10000 nM in each case.

In the case of `CC(C)(C)c1cnnc(C2CCC(c3cc(Nc4ccc5c(c4F)CNS5(=O)=O)n[nH]3)C2)c1` (stereo not drawn) [Example 131, 5-((5-(3-(5-(tert-butyl)pyridazin-3-yl)cyclopentyl)-1H-pyrazol-3-yl)amino)-4-fluoro-2,3-dihydrobenzo[d]isothiazole 1,1-dioxide], the IC50 was above 10000 nM against CDK1/Cyclin B1 [3] and 167 nM against CDK2/Cyclin E1 [4].

On to `CC(C)(O)c1cnc(C2CCC(c3cc(Nc4ccc5c(c4F)CNS5(=O)=O)n[nH]3)C2)o1` (stereo not drawn) [Example 110, 4-fluoro-5-((5-(3-(5-(2-hydroxypropan-2-yl)oxazol-2-yl)cyclopentyl)-1H-pyrazol-3-yl)amino)-2,3-dihydrobenzo[d]isothiazole 1,1-dioxide], for which the IC50 on CDK1/Cyclin B1 [3] worked out at 7240 nM; on CDK2/Cyclin E1 [4] it was 32 nM.

As to `CC(C)c1cnc(C2CCC(c3cc(Nc4ccc5c(c4F)CNS5(=O)=O)n[nH]3)C2)o1` (single isomer, unassigned) [Example 109c, 4-fluoro-5-((5-(3-(5-isopropyloxazol-2-yl)cyclopentyl)-1H-pyrazol-3-yl)amino)-2,3-dihydrobenzo[d]isothiazole 1,1-dioxide], the IC50 at CDK1/Cyclin B1 [3] was above 10000 nM; against CDK2/Cyclin E1 [4] it was 1810 nM.

For `O=S1(=O)NCc2cc(Nc3cc(C4CCC(c5ncc(C6CC6)o5)C4)[nH]n3)c(F)cc21` (stereo not drawn) [Example 20, 5-((5-(3-(5-cyclopropyloxazol-2-yl)cyclopentyl)-1H-pyrazol-3-yl)amino)-6-fluoro-2,3-dihydrobenzo[d]isothiazole 1,1-dioxide], the IC50 on CDK1/Cyclin B1 [3] was above 10000 nM; on CDK2/Cyclin E1 [4], 73 nM.

As for `CC(C)c1ccnc(C2CCC(c3cc(Nc4ccc(S(N)(=O)=O)cc4F)n[nH]3)C2)n1` (stereo not drawn) [Example 5, 3-fluoro-4-((5-(3-(4-isopropylpyrimidin-2-yl)cyclopentyl)-1H-pyrazol-3-yl)amino)benzenesulfonamide], the IC50 against CDK1/Cyclin B1 [3] was determined as 656 nM; on CDK2/Cyclin E1 [4], 4.6 nM.

Turning to `Cc1nc(C2CCC(c3cc(Nc4ccc5c(c4F)CS(=O)(=O)C5)n[nH]3)C2)oc1C(C)(C)C` (stereo not drawn) [Example 177, 5-((5-(3-(5-(tert-butyl)-4-methyloxazol-2-yl)cyclopentyl)-1H-pyrazol-3-yl)amino)-4-fluoro-1,3-dihydrobenzo[c]thiophene 2,2-dioxide], the IC50 was 336 nM against CDK1/Cyclin B1 [3] and 3 nM on CDK2/Cyclin E1 [4].

For orientation: IC50 means the concentration at which inhibition is half-maximal. A low value points to greater potency.
